# In US20060252807A1, “Novel ortho-terphenyl inhibitors of p38 kinase and methods of treating inflammatory disorders” (Kalypsys, Inc., priority 2005, published 2006):
# Molecular target: T1, active p38 alpha enzyme (Upstate Biotechnology) (Homo sapiens, UniProt Q16539)
# T1 construct: purchased Upstate Biotechnology
# Assay: p38α biochemical assay (ATP turnover, luminescent detection, Cambrex PKlight)
# Conditions: p38α biochemical assay, Table 1 Biological Activity
# Procedure, shortened: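 Active human p38α was incubated with full-length MapkapK2 protein as substrate and 1.4 uM ATP (final) for 2 hours at 30C. Buffer: 200 mM Tris, 100 mM MgCl2, 1.5 mM EGTA, 4 mM CaCl2, 20 mM MOPS, 1 mM EDTA, 1% glycerol, 0.1% β-mercaptoethanol, 1 mg/ml BSA. Total ATP turnover read by luminescence.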
# T1 sequence (Q16539 whole entry): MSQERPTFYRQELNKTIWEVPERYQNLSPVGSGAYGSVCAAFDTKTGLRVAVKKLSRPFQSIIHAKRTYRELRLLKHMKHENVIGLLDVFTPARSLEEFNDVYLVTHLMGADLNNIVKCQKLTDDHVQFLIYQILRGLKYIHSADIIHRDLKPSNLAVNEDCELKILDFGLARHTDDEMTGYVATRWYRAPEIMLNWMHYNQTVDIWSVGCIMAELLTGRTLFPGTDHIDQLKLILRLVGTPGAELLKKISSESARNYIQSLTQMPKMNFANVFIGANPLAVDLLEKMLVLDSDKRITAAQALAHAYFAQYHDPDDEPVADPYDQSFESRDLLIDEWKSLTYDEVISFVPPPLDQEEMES
row,Structure (SMILES),IC50 [nM]
1,Cc1ccc(C(=O)NCc2onc(-c3ccc(F)cc3)c2-c2nc(C(=O)NC(C)C)cs2)cc1Br [Example 768],> 1000
2,CC(C)NC(=O)c1csc(-c2c(-c3ccc(F)cc3)noc2CNC(=O)Cc2ccc(Br)cc2)n1 [Example 769],> 1000
3,CC(C)NC(=O)c1csc(-c2c(-c3ccc(F)cc3)noc2CNC(=O)C2CCCN2C(=O)OC(C)(C)C)n1 (stereo not drawn) [Example 770],> 1000
4,CC(C)NC(=O)c1csc(-c2c(-c3ccc(F)cc3)noc2CNC(=O)/C=C/c2ccccc2C(F)(F)F)n1 [Example 771],> 1000
5,CCOc1ccc2ccccc2c1C(=O)NCc1onc(-c2ccc(F)cc2)c1-c1nc(C(=O)NC(C)C)cs1 [Example 772],> 1000
6,CC(C)NC(=O)c1csc(-c2c(-c3ccc(F)cc3)noc2CNC(=O)C(NC(=O)OC(C)(C)C)C(C)C)n1 (stereo not drawn) [Example 773],> 1000
7,CC(C)NC(=O)c1csc(-c2c(-c3ccc(F)cc3)noc2CNC(=O)C(NC(=O)OC(C)(C)C)C(C)C)n1 (stereo not drawn) [Example 774],> 1000
8,CC(C)NC(=O)c1csc(-c2c(-c3ccc(F)cc3)noc2CNC(=O)CCc2cccc(C(F)(F)F)c2)n1 [Example 775],> 1000
9,CC1=NN(c2ccc(C(=O)NCc3onc(-c4ccc(F)cc4)c3-c3nc(C(=O)NC(C)C)cs3)cc2)C(=O)C1 [Example 776],> 1000
10,Cc1nc(Br)sc1C(=O)NCc1onc(-c2ccc(F)cc2)c1-c1nc(C(=O)NC(C)C)cs1 [Example 777],> 1000
11,CC(C)NC(=O)c1csc(-c2c(-c3ccc(F)cc3)noc2CNC(=O)c2c3ccccc3cc3ccccc23)n1 [Example 778],> 1000
12,CC(C)NC(=O)c1csc(-c2c(-c3ccc(F)cc3)noc2CNC(=O)c2cc(C(C)C)cc(C(C)C)c2O)n1 [Example 779],> 1000
13,CC(=O)NC(Cc1ccc(O)cc1)C(=O)NCc1onc(-c2ccc(F)cc2)c1-c1nc(C(=O)NC(C)C)cs1 (stereo not drawn) [Example 780],> 1000
14,CC(C)NC(=O)c1csc(-c2c(-c3ccc(F)cc3)noc2CNC(=O)c2c(Cl)cc(Cl)cc2Cl)n1 [Example 781],> 1000
15,COc1cc(C(=O)NCc2onc(-c3ccc(F)cc3)c2-c2nc(C(=O)NC(C)C)cs2)c([N+](=O)[O-])cc1OC [Example 782],> 1000
16,CC(C)NC(=O)c1csc(-c2c(-c3ccc(F)cc3)noc2CNC(=O)c2ccc(OCc3ccccc3)cc2)n1 [Example 783],> 1000
17,CC(C)NC(=O)c1csc(-c2c(-c3ccc(F)cc3)noc2CNC(=O)CCc2ccccc2Br)n1 [Example 784],> 1000
18,CC(C)NC(=O)c1csc(-c2c(-c3ccc(F)cc3)noc2CNC(=O)CCc2cccc(Br)c2)n1 [Example 785],> 1000
19,CC(C)NC(=O)c1csc(-c2c(-c3ccc(F)cc3)noc2CNC(=O)C2CCCCN2C(=O)OC(C)(C)C)n1 (stereo not drawn) [Example 786],> 1000
20,CC(C)NC(=O)c1csc(-c2c(-c3ccc(F)cc3)noc2CNC(=O)c2ccc(Oc3cccc(O)c3)cc2)n1 [Example 787],> 1000
21,COc1ccc2cc(C(C)C(=O)NCc3onc(-c4ccc(F)cc4)c3-c3nc(C(=O)NC(C)C)cs3)ccc2c1 (stereo not drawn) [Example 788],> 1000
22,CC(C)NC(=O)c1csc(-c2c(-c3ccc(F)cc3)noc2CNC(=O)C2CN(C(=O)OC(C)(C)C)CCN2)n1 (stereo not drawn) [Example 789],> 1000
23,CC(C)NC(=O)c1csc(-c2c(-c3ccc(F)cc3)noc2CNC(=O)C2CN(C(=O)OC(C)(C)C)CCN2)n1 (stereo not drawn) [Example 790],> 1000
24,COc1ccc(Br)c(C(=O)NCc2onc(-c3ccc(F)cc3)c2-c2nc(C(=O)NC(C)C)cs2)c1 [Example 791],> 1000
25,CC(C)NC(=O)c1csc(-c2c(-c3ccc(F)cc3)noc2CNC(=O)C2CC(O)CN2C(=O)OC(C)(C)C)n1 (stereo not drawn) [Example 792],> 1000
26,CC(C)NC(=O)c1csc(-c2c(-c3ccc(F)cc3)noc2CNC(=O)C(C(C)C)N(C)C(=O)OC(C)(C)C)n1 (stereo not drawn) [Example 793],> 1000
27,CC(C)NC(=O)c1csc(-c2c(-c3ccc(F)cc3)noc2CNC(=O)c2ccc(C(F)(F)F)cc2[N+](=O)[O-])n1 [Example 794],> 1000

# The next lines start with the values.
row,IC50 [nM],Structure (SMILES)
1,> 1000,CC(C)NC(=O)c1csc(-c2c(-c3ccc(F)cc3)noc2CNC(=O)c2cc(Br)ccc2Cl)n1 [Example 795]
2,> 1000,CC(C)NC(=O)c1csc(-c2c(-c3ccc(F)cc3)noc2CNC(=O)c2ccc(Cl)c(Br)c2)n1 [Example 796]

# Same assay, conditions: p38α kinase; Table 1 Biological Activity
row,IC50 [nM],Structure (SMILES)
1,> 1000,CC(C)NC(=O)c1csc(-c2c(-c3ccc(F)cc3)noc2CNC(=O)c2ccccc2C(=O)c2ccc(O)cc2)n1 [Example 797]
2,> 1000,CC(C)NC(=O)c1csc(-c2c(-c3ccc(F)cc3)noc2CNC(=O)c2ccccc2C(=O)c2ccc(F)cc2)n1 [Example 798]
3,> 1000,CC(C)NC(=O)c1csc(-c2c(-c3ccc(F)cc3)noc2CNC(=O)C(C)c2ccc(-c3ccccc3)c(F)c2)n1 (stereo not drawn) [Example 799]
4,> 1000,CC(C)NC(=O)c1csc(-c2c(-c3ccc(F)cc3)noc2CNC(=O)c2cccc(I)c2)n1 [Example 801]
5,> 1000,CC(C)NC(=O)c1csc(-c2c(-c3ccc(F)cc3)noc2CNC(=O)C2CCCN2C(=O)OCc2ccccc2)n1 (stereo not drawn) [Example 802]
6,> 1000,CCC(C)C(NC(=O)OC(C)(C)C)C(=O)NCc1onc(-c2ccc(F)cc2)c1-c1nc(C(=O)NC(C)C)cs1 (stereo not drawn) [Example 803]
7,> 1000,CC(C)CC(NC(=O)OC(C)(C)C)C(=O)NCc1onc(-c2ccc(F)cc2)c1-c1nc(C(=O)NC(C)C)cs1 (stereo not drawn) [Example 804]
8,> 1000,CC(C)NC(=O)c1csc(-c2c(-c3ccc(F)cc3)noc2CNC(=O)C(C)c2cccc(C(=O)c3ccccc3)c2)n1 (stereo not drawn) [Example 805]
9,> 1000,CC(C)NC(=O)c1csc(-c2c(-c3ccc(F)cc3)noc2CNC(=O)C(Cc2ccccc2)NC(=O)OC(C)(C)C)n1 (stereo not drawn) [Example 806]
10,> 1000,CC(C)NC(=O)c1csc(-c2c(-c3ccc(F)cc3)noc2CNC(=O)C(Cc2ccccn2)NC(=O)OC(C)(C)C)n1 (stereo not drawn) [Example 807]
11,> 1000,CC(C)NC(=O)c1csc(-c2c(-c3ccc(F)cc3)noc2CNC(=O)C2Cc3ccccc3CN2C(=O)OC(C)(C)C)n1 (stereo not drawn) [Example 808]
12,> 1000,CC(C)NC(=O)c1csc(-c2c(-c3ccc(F)cc3)noc2CNC(=O)C(Cc2ccc(O)cc2)NC(=O)OC(C)(C)C)n1 (stereo not drawn) [Example 809]
13,≤ 1000,CC(C)NC(=O)c1csc(-c2c(-c3ccc(F)cc3)noc2CN)n1 [Example 810]
14,≤ 1000,CC(C)NC(=O)c1csc(-c2c(-c3ccc(F)cc3)n[nH]c2C2CCN(C(=O)C=O)CC2)n1 [Example 813]
15,≤ 1000,CC(C)NC(=O)c1csc(-c2c(-c3ccc(F)cc3)n[nH]c2C2CCN(C(=O)CC#N)CC2)n1 [Example 814]
16,≤ 1000,CC(C)NC(=O)c1csc(-c2c(-c3ccc(F)cc3)n[nH]c2C2CCN(C(=O)C(C)O)CC2)n1 (stereo not drawn) [Example 815]
17,> 1000,CCC(=O)C(=O)N1CCC(c2[nH]nc(-c3ccc(F)cc3)c2-c2nc(C(=O)NC(C)C)cs2)CC1 [Example 816]
18,≤ 1000,CC(C)NC(=O)c1csc(-c2c(-c3ccc(F)cc3)n[nH]c2C2CCN(C(=O)C(C)(C)C)CC2)n1 [Example 817]
19,> 1000,CC(C)CC(=O)N1CCC(c2[nH]nc(-c3ccc(F)cc3)c2-c2nc(C(=O)NC(C)C)cs2)CC1 [Example 818]

row,IC50 [nM],Structure (SMILES)
1,> 1000,CC(C)NC(=O)c1csc(-c2c(-c3ccc(F)cc3)n[nH]c2C2CCN(C(=O)c3cnc[nH]3)CC2)n1 [Example 819]
2,> 1000,CC(C)NC(=O)c1csc(-c2c(-c3ccc(F)cc3)n[nH]c2C2CCN(C(=O)C3=CCCC3)CC2)n1 [Example 821]
3,≤ 1000,CC(C)NC(=O)c1csc(-c2c(-c3ccc(F)cc3)n[nH]c2C2CCN(C(=O)C3CCCO3)CC2)n1 (stereo not drawn) [Example 823]
4,≤ 1000,CC(C)NC(=O)c1csc(-c2c(-c3ccc(F)cc3)n[nH]c2C2CCN(C(=O)c3ccccc3)CC2)n1 [Example 825]
5,≤ 1000,CC(C)NC(=O)c1csc(-c2c(-c3ccc(F)cc3)n[nH]c2C2CCN(C(=O)C(O)CCl)CC2)n1 (stereo not drawn) [Example 829]
6,> 1000,Cc1cc(C(=O)N2CCC(c3[nH]nc(-c4ccc(F)cc4)c3-c3nc(C(=O)NC(C)C)cs3)CC2)n[nH]1 [Example 830]
7,> 1000,CC(C)NC(=O)c1csc(-c2c(-c3ccc(F)cc3)n[nH]c2C2CCN(C(=O)c3cn(C)cn3)CC2)n1 [Example 831]
8,> 1000,CC(C)NC(=O)c1csc(-c2c(-c3ccc(F)cc3)n[nH]c2C2CCN(C(=O)C3CCCCC3)CC2)n1 [Example 832]
9,≤ 1000,CC(C)NC(=O)c1csc(-c2c(-c3ccc(F)cc3)n[nH]c2C2CCN(C(=O)c3cscn3)CC2)n1 [Example 833]
10,≤ 1000,CCOC(=O)CC(=O)N1CCC(c2[nH]nc(-c3ccc(F)cc3)c2-c2nc(C(=O)NC(C)C)cs2)CC1 [Example 834]
11,> 1000,Cc1cccc(C(=O)N2CCC(c3[nH]nc(-c4ccc(F)cc4)c3-c3nc(C(=O)NC(C)C)cs3)CC2)c1 [Example 835]
12,≤ 1000,Cc1ccccc1C(=O)N1CCC(c2[nH]nc(-c3ccc(F)cc3)c2-c2nc(C(=O)NC(C)C)cs2)CC1 [Example 836]
13,> 1000,Cc1ccc(C(=O)N2CCC(c3[nH]nc(-c4ccc(F)cc4)c3-c3nc(C(=O)NC(C)C)cs3)CC2)cc1 [Example 837]
14,≤ 1000,CC(C)NC(=O)c1csc(-c2c(-c3ccc(F)cc3)n[nH]c2C2CCN(C(=O)c3cccc(O)c3)CC2)n1 [Example 838]
15,> 1000,CC(C)NC(=O)c1csc(-c2c(-c3ccc(F)cc3)n[nH]c2C2CCN(C(=O)c3ccccc3O)CC2)n1 [Example 839]
16,> 1000,CC(C)NC(=O)c1csc(-c2c(-c3ccc(F)cc3)n[nH]c2C2CCN(C(=O)c3ccc(F)cc3)CC2)n1 [Example 840]
17,> 1000,CC(C)NC(=O)c1csc(-c2c(-c3ccc(F)cc3)n[nH]c2C2CCN(C(=O)c3cccc(F)c3)CC2)n1 [Example 841]
18,> 1000,CCCCCCCC(=O)N1CCC(c2[nH]nc(-c3ccc(F)cc3)c2-c2nc(C(=O)NC(C)C)cs2)CC1 [Example 842]
